{"source": "patent US10780106B2", "about": "“Method for treating NASH accompanied by fibrosis using Cl-IB-MECA” (CAN-FITE BIOPHARMA LTD., priority 2015, dated 2020)", "key": {"NASH mice [1]": {"test_system": "NASH mice", "assay": "Example 2: STZ plus high fat diet mouse model, effect of CF102 on NAS score", "assay_type": "in vivo", "conditions": "CF102 200 μg/kg orally thrice daily, 6 to 9 weeks of age; compared to the vehicle", "experimental": "Male mice were injected with 200 μg/animal STZ two days after birth. From 4 weeks of age, the mice were fed with high fat diet. At 6 weeks of age, the mice were randomized into vehicle and CF102 200 μg/kg treatment groups. Treatment was given orally, thrice daily. Termination was performed after 9 weeks. Hematoxylin & Eosin staining was used for estimation of NAFLD Activity."}, "NASH mice [2]": {"test_system": "NASH mice", "assay": "Example 1: STZ plus high fat diet NASH mouse model, effect of CF102 on liver weight, ALT, TG and liver histology", "assay_type": "in vivo, Male C57BL/6 mice", "experimental": "Male C57BL/6 mice were used as a murine experimental model.\nThe A3AR agonist, 2-Chloro-N^6-(3-iodobenzyl)-adenosine-5′-N-methyluronamide (Cl-IB-MECA, referred to herein by the abbreviated name CF102), was synthesized for Can-Fite BioPharma by Albany Molecular Research Inc, Albany. N.Y., USA. CF102 was used in liquid form, dissolved in dimethyl sulfoxide (DMSO), used as the vehicle. Dissolved CF102 and the DMSO vehicle were administered at the same volume.\nMale C57BL/6 mice were injected with a single subcutaneous injection of 200 μg streptozotocin (STZ) two days after birth and feeding with high fat diet after 4 weeks of age. […] Treatment was given between 6 weeks of age and 9 weeks of age.\nAfter Study termination, liver weight was measured and Liver-to-Body weight ratio was calculated.\nPlasma ALT and liver triglyceride were measured and histological analyses were made on the liver sections for the following: Hematoxylin & Eosin staining for estimation of NAFLD Activity score and Sirius red staining for estimation of fibrosis area."}, "hepatocyte": {"test_system": "hepatocyte", "conditions": "as disclosed in WO09/050707; cited from earlier work"}, "[3]": {"conditions": "Hematoxylin & Eosin liver histology, compared to the Vehicle"}, "[4]": {"conditions": "NASH mice, CF102 orally thrice daily from 6 to 9 weeks of age, vs vehicle"}}, "note": "“Also recorded” adds a separate entry of the source.", "data": [{"molecule": "CNC(=O)[C@H]1O[C@@H](n2cnc3c(NCc4cccc(I)c4)nc(Cl)nc32)[C@H](O)[C@@H]1O", "note": "[CF102, 2-Chloro-N^6-(3-iodobenzyl)-adenosine-5′-N-methyluronamide]", "values": [{"measurement": "inflammation NAS (NAFLD Activity Score) score", "setting": "NASH mice [1]", "value": "reduced the inflammation NAS; also recorded: reducing the inflammation NAS score"}, {"measurement": "NAFLD activity score", "setting": "NASH mice [2]; CF102 200 μg/kg, FIG. 4", "value": "decrease in NAFLD activity score"}, {"measurement": "ballooning (liver sections)", "setting": "NASH mice [2]; [3]", "value": "significant decrease"}, {"measurement": "lobular inflammation (liver sections)", "setting": "NASH mice [2]; [3]", "value": "significant decrease"}, {"measurement": "steatosis (liver sections)", "setting": "NASH mice [2]; [3]", "value": "significant decrease"}, {"measurement": "liver-to-body weight ratio", "setting": "NASH mice [2]; NASH livers in mice, CF102 orally thrice daily from 6 to 9 weeks of age, vs vehicle, p=0.05", "value": "reduced liver-to-body weight ratio; also recorded: reduction of liver-to-body weight ratio"}, {"measurement": "Triglycerides levels in the liver", "setting": "NASH mice [2]; [4]", "value": "decrease"}, {"measurement": "plasma ALT level", "setting": "NASH mice [2]; [4]", "value": "decreased ALT levels; also recorded: decrease in plasma ALT level"}, {"measurement": "hepatocyte proliferation", "setting": "hepatocyte", "value": "induce hepatocyte proliferation"}]}]}
